system: U87MG cells; test: Cellular assay, inhibition of 2-HG production in U87MG cells; format: cell-based; details: Homo sapiens, U-87 MG, 48 h
Method: Cells (HT1080 or U87MG) are grown in T125 flasks in DMEM containing 10% FBS, 1× penicillin/streptomycin and 500 ug/mL G418 (present in U87MG cells only). They are harvested by trypsin and seeded into 96 well white bottom plates at a density of 5000 cell/well in 100 ul/well in DMEM with 10% FBS. […] Cells are incubated overnight at 37° C. in 5% CO2. The next day test compounds are made up at 2× the final concentration and 100 ul are added to each cell well. The final concentration of DMSO is 0.2% and the DMSO control wells are plated in row G. The plates are then placed in the incubator for 48 hours. […] The cell plate is placed back in the incubator for another 24 hours. At 72 hours post compound addition, 10 mL/plate of Promega Cell Titer Glo reagent is thawed and mixed. The cell plate is removed from the incubator and allowed to equilibrate to room temperature. Then 100 ul of Promega Cell Titer Glo reagent is added to each well of media. The cell plate is then placed on an orbital shaker for 10 minutes and then allowed to sit at room temperature for 20 minutes. The plate is then read for luminescence with an integration time of 500 ms.

IC50	Structure (SMILES)
< 100 nM	O=C(NC1CC(F)(F)C1)[C@H](c1ccccc1Cl)N(C(=O)[C@@H]1CCC(=O)N1c1cscn1)c1cccc(F)c1 [Compound 43, (S)—N—((S)-1-(2-Chlorophenyl)-2-(3,3-difluorocyclobutylamino)-2-oxoethyl)-N-(3-fluorophenyl)-5-oxo-1-(thiazol-4-yl)pyrrolidine-2-carboxamide]
100 to 500 nM	N#Cc1ccc(N2C(=O)CC[C@H]2C(=O)N(c2cccc(F)c2)[C@H](C(=O)NC2CC(F)(F)C2)c2ccccc2Cl)nc1 [Compound 47]
100 to 500 nM	O=C(NC1CC(F)(F)C1)C(c1c(Cl)cccc1Cl)N(C(=O)[C@@H]1CCC(=O)N1c1ncccn1)c1cccc(F)c1 (some centres unmarked) [Compound 51]
< 100 nM	N#Cc1ccnc(N2C(=O)CC[C@H]2C(=O)N(c2cccc(F)c2)[C@H](C(=O)NC2CCC(F)(F)CC2)c2ccccc2Cl)c1 [Compound 53]
< 100 nM	N#Cc1ccnc(N2C(=O)CCC[C@H]2C(=O)N(c2cccc(F)c2)[C@H](C(=O)NC2CC(F)(F)C2)c2ccccc2Cl)c1 [Compound 55, (S)—N—((S)-1-(2-Chlorophenyl)-2-(3,3-difluorocyclobutylamino)-2-oxoethyl)-1-(4-cyanopyridin-2-yl)-N-(3-fluorophenyl)-6-oxopiperidine-2-carboxamide]
< 100 nM	O=C(NC1CCC(F)(F)CC1)[C@H](c1ccccc1Cl)N(C(=O)[C@@H]1CCC(=O)N1c1cnccn1)c1cccc(F)c1 [Compound 58, (S)—N—((S)-1-(2-Chlorophenyl)-2-(4,4-difluorocyclohexylamino)-2-oxoethyl)-N-(3-fluorophenyl)-5-oxo-1-(pyrazin-2-yl)pyrrolidine-2-carboxamide]
< 100 nM	N#Cc1ccnc(N2C(=O)CC[C@H]2C(=O)N(c2cccc(F)c2)[C@H](C(=O)NC2CC(F)(F)C2)c2ccccc2Cl)n1 [Compound 68, (S)—N—((S)-1-(2-Chlorophenyl)-2-((3,3-difluorocyclobutyl)amino)-2-oxoethyl)-1-(4-cyanopyrimidin-2-yl)-N-(3-fluorophenyl)-5-oxopyrrolidine-2-carboxamide]
< 100 nM	N#Cc1cccnc1N1C(=O)CC[C@H]1C(=O)N(c1cccc(F)c1)[C@H](C(=O)NC1CC(F)(F)C1)c1ccccc1Cl [Compound 69, (S)—N—((S)-1-(2-Chlorophenyl)-2-((3,3-difluorocyclobutyl)amino)-2-oxoethyl)-1-(3-cyanopyridin-2-yl)-N-(3-fluorophenyl)-5-oxopyrrolidine-2-carboxamide]
< 100 nM	O=C(NC1CC(F)(F)C1)[C@H](c1ccccc1Cl)N(C(=O)[C@@H]1CCC(=O)N1c1ncccn1)c1cc(F)cc(F)c1 [Compound 70, (S)—N—((S)-1-(2-Chlorophenyl)-2-((3,3-difluorocyclobutyl)amino)-2-oxoethyl)-N-(3,5-difluoro-phenyl)-5-oxo-1-(pyrimidin-2-yl)pyrrolidine-2-carboxamide]
< 100 nM	N#Cc1ccnc(N2C(=O)CC[C@H]2C(=O)N(c2cc(F)cc(F)c2)[C@H](C(=O)NC2CC(F)(F)C2)c2ccccc2Cl)c1 [Compound 71, (S)—N—((S)-1-(2-Chlorophenyl)-2-((3,3-difluorocyclobutyl)amino)-2-oxoethyl)-1-(4-cyanopyridin-2-yl)-N-(3,5-difluorophenyl)-5-oxopyrrolidine-2-carboxamide]
< 100 nM	O=C(NC1CC(F)(F)C1)[C@H](c1ccccc1Cl)N(C(=O)[C@@H]1COC(=O)N1c1cscn1)c1cccc(F)c1 [Compound 72, (S)—N—((S)-1-(2-Chlorophenyl)-2-((3,3-difluorocyclobutyl)amino)-2-oxoethyl)-N-(3-fluorophenyl)-2-oxo-3-(thiazol-4-yl)oxazolidine-4-carboxamide]
< 100 nM	O=C(NC1CCC(F)(F)CC1)[C@H](c1ccccc1Cl)N(C(=O)[C@@H]1CCC(=O)N1c1cscn1)c1cccc(F)c1 [Compound 74]
< 100 nM	N#Cc1ccnc(N2C(=O)CCC[C@H]2C(=O)N(c2cccc(F)c2)[C@H](C(=O)NC2CCC(F)(F)CC2)c2ccccc2Cl)c1 [Compound 75, (S)—N—((S)-1-(2-Chlorophenyl)-2-((4,4-difluorocyclohexyl)amino)-2-oxoethyl)-1-(4-cyano-pyridin-2-yl)-N-(3-fluorophenyl)-6-oxopiperidine-2-carboxamide]
< 100 nM	O=C(NC1CCC(F)(F)CC1)[C@H](c1ccccc1Cl)N(C(=O)[C@@H]1COC(=O)N1c1ncccn1)c1cccc(F)c1 [Compound 76, (S)—N—((S)-1-(2-Chlorophenyl)-2-((4,4-difluorocyclohexyl)amino)-2-oxoethyl)-N-(3-fluoro-phenyl)-2-oxo-3-(pyrimidin-2-yl)oxazolidine-4-carboxamide]
< 100 nM	N#Cc1ccnc(N2C(=O)OC[C@H]2C(=O)N(c2cccc(F)c2)[C@H](C(=O)NC2CC(F)(F)C2)c2ccccc2Cl)c1 [Compound 77, (S)—N—((S)-1-(2-Chlorophenyl)-2-(3,3-difluorocyclobutylamino)-2-oxoethyl)-3-(4-cyanopyridin-2-yl)-N-(3-fluorophenyl)-2-oxooxazolidine-4-carboxamide]
< 100 nM	N#Cc1ccnc(N2C(=O)OC[C@H]2C(=O)N(c2cccc(F)c2)[C@H](C(=O)NC2CCC(F)(F)CC2)c2ccccc2Cl)c1 [Compound 78, (S)—N—((S)-1-(2-Chlorophenyl)-2-((4,4-difluorocyclohexyl)amino)-2-oxoethyl)-3-(4-cyano-pyridin-2-yl)-N-(3-fluorophenyl)-2-oxooxazolidine-4-carboxamide]
< 100 nM	CN1C[C@@H](C(=O)N(c2cccc(F)c2)C(C(=O)NC2CC(F)(F)C2)c2ccccc2Cl)N(c2cc(C#N)ccn2)C1=O (stereo partly drawn) [Compound 79, (4S)—N-(1-(2-chlorophenyl)-2-((3,3-difluorocyclobutyl)amino)-2-oxoethyl)-3-(4-cyanopyridin-2-yl)-N-(3-fluorophenyl)-1-methyl-2-oxoimidazolidine-4-carboxamide]
< 100 nM	N#Cc1ccnc(N2C(=O)NC[C@H]2C(=O)N(c2cccc(F)c2)[C@H](C(=O)NC2CC(F)(F)C2)c2ccccc2Cl)c1 [Compound 80, (S)—N—((S)-1-(2-chlorophenyl)-2-(3,3-difluorocyclobutylamino)-2-oxoethyl)-3-(4-cyanopyridin-2-yl)-N-(3-fluorophenyl)-2-oxoimidazolidine-4-carboxamide]
< 100 nM	N#Cc1ccnc(N2C(=O)CC[C@H]2C(=O)N(c2cc(F)cc(F)c2)[C@H](C(=O)NC2CCC(F)(F)CC2)c2ccccc2Cl)c1 [Compound 81, (2S)—N-(1-(2-Chlorophenyl)-2-(4,4-difluorocyclohexylamino)-2-oxoethyl)-1-(4-cyanopyridin-2-yl)-N-(3,5-difluorophenyl)-5-oxopyrrolidine-2-carboxamide]
< 100 nM	N#Cc1ccnc(N2C(=O)CC[C@H]2C(=O)N(c2cccc(F)c2)[C@H](C(=O)NC2CC(F)(F)C2)c2ccccc2Cl)c1F [Compound 82, (S)—N—((S)-1-(2-Chlorophenyl)-2-((3,3-difluorocyclobutyl)amino)-2-oxoethyl)-1-(4-cyano-3-fluoropyridin-2-yl)-N-(3-fluorophenyl)-5-oxopyrrolidine-2-carboxamide]
< 100 nM	N#Cc1ccnc(N2C(=O)CC[C@H]2C(=O)N(c2cccc(F)c2)[C@H](C(=O)NC2CCC(F)(F)CC2)c2ccccc2Cl)c1F [Compound 83, (S)—N—((S)-1-(2-Chlorophenyl)-2-((4,4-difluorocyclohexyl)amino)-2-oxoethyl)-1-(4-cyano-3-fluoropyridin-2-yl)-N-(3-fluorophenyl)-5-oxopyrrolidine-2-carboxamide]
100 to 500 nM	N#Cc1ccnc(N2C(=O)CC[C@H]2C(=O)N(c2cccc(S(N)(=O)=O)c2)[C@H](C(=O)NC2CC(F)(F)C2)c2ccccc2Cl)c1 [Compound 84, (S)—N—((S)-1-(2-Chlorophenyl)-2-(3,3-difluorocyclobutylamino)-2-oxoethyl)-1-(4-cyanopyridin-2-yl)-5-oxo-N-(3-sulfamoylphenyl)pyrrolidine-2-carboxamide]
< 100 nM	N#Cc1ccnc(N2C(=O)CC[C@H]2C(=O)N(c2cccc(F)c2)[C@H](C(=O)NC2CCC(F)(F)CC2)c2ccccc2Cl)n1 [Compound 85, (S)—N—((S)-1-(2-Chlorophenyl)-2-((4,4-difluorocyclohexyl)amino)-2-oxoethyl)-1-(4-cyanopyrimidin-2-yl)-N-(3-fluorophenyl)-5-oxopyrrolidine-2-carboxamide]
< 100 nM	N#Cc1ccnc(N2C(=O)CC[C@H]2C(=O)N(c2cc(F)cc(F)c2)[C@H](C(=O)NC2CC(F)(F)C2)c2ccccc2Cl)n1 [Compound 86, (S)—N—((S)-1-(2-Chlorophenyl)-2-((3,3-difluorocyclobutyl)amino)-2-oxoethyl)-1-(4-cyanopyrimidin-2-yl)-N-(3,5-difluorophenyl)-5-oxopyrrolidine-2-carboxamide]
< 100 nM	N#Cc1ccnc(N2C(=O)CC[C@H]2C(=O)N(c2cc(F)cc(F)c2)[C@H](C(=O)NC2CCC(F)(F)CC2)c2ccccc2Cl)n1 [Compound 87, (S)—N—((S)-1-(2-Chlorophenyl)-2-((4,4-difluorocyclohexyl)amino)-2-oxoethyl)-1-(4-cyanopyrimidin-2-yl)-N-(3,5-difluorophenyl)-5-oxopyrrolidine-2-carboxamide]
< 100 nM	N#Cc1ccnc(N2C(=O)CC[C@H]2C(=O)N(c2cc(F)cc(F)c2)[C@H](C(=O)NC2CC(F)(F)C2)c2ccccc2Cl)c1F [Compound 88, (S)—N—((S)-1-(2-Chlorophenyl)-2-((3,3-difluorocyclobutyl)amino)-2-oxoethyl)-1-(4-cyano-3-fluoropyridin-2-yl)-N-(3,5-difluorophenyl)-5-oxopyrrolidine-2-carboxamide]

— patent US10640534B2 (Agios Pharmaceuticals, Inc., priority 2012, dated 2020)
